For three molecules, surface tension liquid-gas results are on record in the NIST ThermoML archive (doi:10.1016/j.jct.2018.12.036).

The conditions of this data set: Plate method.

Numbers after ± are expanded uncertainties.

Broadly, the surface tension liquid-gas is the work needed to enlarge the surface of a liquid by unit area. For the molecule `CCCC[n+]1ccn(C)c1.O=S(=O)([N-]S(=O)(=O)C(F)(F)F)C(F)(F)F`, the surface tension liquid-gas by setting is: (293.15 K) 33.29 ± 0.43 mN/m; (298.15 K) 33.07 ± 0.43 mN/m; (303.15 K) 32.88 ± 0.43 mN/m; (308.15 K) 32.67 ± 0.43 mN/m; (313.15 K) 32.49 ± 0.43 mN/m; (318.15 K) 32.29 ± 0.43 mN/m. The surface tension liquid-gas (323.15 K) was found to be 32.11 ± 0.43 mN/m.

Regarding `CCCCn1cc[n+](C)c1.F[P-](F)(F)(F)(F)F` [1-butyl-3-methylimidazolium hexafluorophosphate], the surface tension liquid-gas (293.15 K) is given as 44.56 ± 0.46 mN/m; the surface tension liquid-gas (298.15 K) was 44.32 ± 0.46 mN/m; the surface tension liquid-gas (303.15 K) is recorded as 44.11 ± 0.46 mN/m; the surface tension liquid-gas (308.15 K) was found to be 43.88 ± 0.46 mN/m; the surface tension liquid-gas (313.15 K) worked out at 43.63 ± 0.46 mN/m; the surface tension liquid-gas (318.15 K) is on record as 43.42 ± 0.46 mN/m. The surface tension liquid-gas (323.15 K) is given as 43.18 ± 0.45 mN/m.

For `CCCCn1cc[n+](C)c1.F[B-](F)(F)F` [1-butyl-3-methylimidazolium tetrafluoroborate], the surface tension liquid-gas is, setting by setting: (293.15 K) 44.75 ± 0.46 mN/m; (298.15 K) 44.52 ± 0.46 mN/m; (303.15 K) 44.16 ± 0.46 mN/m; (308.15 K) 43.95 ± 0.46 mN/m; (313.15 K) 43.63 ± 0.46 mN/m; (318.15 K) 43.34 ± 0.46 mN/m. Besides, under “323.15 K”, the surface tension liquid-gas is recorded as 42.98 ± 0.45 mN/m.
